We go through two compounds from patent publication US20250032403A1, “COMPOSITIONS FOR TREATING PERIODONTAL DISEASES” (GR Biosystems, Inc., priority 2017, published 2025).

For data set [1], the system named is HGF-1 cells. Description: Cell viability of HGF-1 cells incubated with deferoxamine. In kind it is cell-based, human. Particulars: HGF-1, deferoxamine 50, 100, 150 μM. The procedure: To better characterize the effectiveness of an iron chelator in regulating the upregulation of MMPs, HGF-1 cells were incubated with varying therapeutically relevant concentrations of deferoxamine (50, 100, 150 μM).

For data set [2], the system named is MMP-14. As to the kind of experiment: Western blot of MMP-14 in HGF-1 cells treated with FAC, CMK or deferoxamine. It is filed as cell-based, human. Particulars: HGF-1, FAC 20, 50 and 100 μM, 48 hours, FIG. 9. As to the method:
(§1) MMP inhibition was tested using CMK and deferoxamine (DES). Ferric ammonium citrate solid (FAC, Amresco) was prepared in 1 mM hydrochloric acid to form a 50 mM stock solution. Iron solutions were freshly made for each experiment and the iron content quantified through a colorimetric assay. Cells were induced with FAC concentrations of 20, 50, and 100 μM, LPS and CMK or a combination, and the cells were allowed to grow in the incubator for 48 hours.
(§2) During the protein extraction, media was collected, flash frozen and saved for later analysis, including Western Blot and ELISA. Cells were washed with cold PBS and lysed with RIPA buffer (150 mM NaCl, 50 mM Tris, 1% Sodium deoxycholate, 1% Triton X-100 and 0.1% SDS). Cells were collected with a cell scraper and centrifuged at 14000 rpms for 30 minutes. The supernatant was collected and assayed for protein concentration. Samples were mixed with 4×SDS loading buffer (40% Glycerol, 8% SDS, 200 mM Tris-HCl, 400 mM dithiothreitol, 0.005% bromophenol blue) for further analysis.
(§3) Gel electrophoresis was conducted using 12% sodium dodecyl sulfate (SDS) and polyacrylamide gels. Equal amounts (30-50 μg) of protein were loaded in each lane and allowed to separate for 1 hour at 150 V.
(§4) Proteins from gels were transferred into 0.45 μm nitrocellulose paper (Bio-Rad) using tris-glycine transfer buffer with 20% methanol using 400 mAmp for 90 minutes. […]
Background: Immunoblotting shows a protein as a band on a membrane.

Data set [3] has as its system MMPs. Particulars: HGF-1, 100 μM FAC, FIG. 17. As to the method:
(§5) Gene expression of MMPs was evaluated after treatment with CMK and deferoxamine. Tissue culture was washed with 1×PBS prior to collection of samples. Cells were lysed and RNA purified using an RNeasy mini kit (Cat #74104) from Qiagen. RNA prep Kit was used according to manufacturer's protocol. All samples were treated with Qiagen DNase (Cat #79254). One microgram of RNA was used for reverse transcription and subsequent SYBR® Green real time PCR for the genes of interest as previously described. Reverse transcription kits (Cat #330401) and SYBR Green real-time PCR master mixes (Cat #330523) were purchased from Qiagen (Louisville, KY).
(§6) The following primers and probes were used: Human MMP-2; MMP2 (Cat #PPH00151B), Human MMP-8; MMP8 (Cat #PPH00908C), Human MMP-13; MMP13 (Cat #PPH00121B), Human MMP-14; MMP14 (Cat #PPH00198C), and Human glyceraldehyde 3-phosphate dehydrogenase; GAPDH (Cat #PPH00150F).
(§7) FIG. 17 is a summary of the qPCR analysis for each MMP.

For data set [4], the system named is Human MMP-8; MMP8. The following applies: HGF-1, 100 μM FAC, FIG. 17. The procedure: as §5, §6, §7
For data set [5], the system named is MMP-2. Description: Western blot of MMP-2 in HGF-1 cells treated with FAC, CMK or deferoxamine. In kind it is cell-based, human. Particulars: HGF-1, FAC 20, 50 and 100 μM, 48 hours, FIG. 7. The procedure: as §1, §2, §3, §4
For data set [6], the system named is MMP-13. Particulars: HGF-1, FAC 20, 50 and 100 μM, 48 hours, FIG. 8. The procedure:
as §1, §2, §3, §4

Data set [7] relates to MMP-9. Description: Western blot of MMP-9 in HGF-1 cells treated with FAC or deferoxamine. Particulars: HGF-1 stimulated with FAC 20, 50 and 100 μM, 48 hours, FIG. 10. It is filed as cell-based, human. The procedure:
as §1, §2, §3, §4

Data set [8] concerns MMP-3. In kind it is cell-based, human. Particulars: HGF-1 stimulated with FAC 20, 50 and 100 μM, 48 hours, FIG. 11. The procedure:
MMP inhibition was tested using CMK and deferoxamine (DES).
The supernatant was collected and assayed for protein concentration.

Take `CC(=O)N(O)CCCCCNC(=O)CCC(=O)N(O)CCCCCNC(=O)CCC(=O)N(O)CCCCCN` [deferoxamine]: the Cell viability result in data set [1] was “unaffected”.

Consider Ferric ammonium citrate [FAC], for which the “presence of MMP-14 protein” value in data set [2] is “dose-dependent increased presence”. Further, in data set [3], the “gene expression of the MMPs (qPCR)” value is given as “acted as an inducer of gene expression of the MMPs”. In addition, the “MMP-8 gene expression (qPCR)” value in data set [4] was “except for MMP-8”. For the same compound, in data set [5], the “presence of MMP-2 protein” value is listed as “dose-dependent increased presence”. Also, the “presence of MMP-13 protein” value in data set [6] is “dose-dependent increased presence”. The MMP-9 protein expression result in data set [7] is “increased expression”. Besides, the MMP-3 protein expression entry in data set [8] is “increased expression”.
